For assay [1], the target named is T1, IL-17A(FLAG-Tagged): IL-17RA(His-Tagged) (Homo sapiens, UniProt Q16552, K93Q). Kind of assay: IL-17A(FLAG-Tagged): IL-17RA(His-Tagged) Binding Disruption Eu-HTRF Assay, Protocol 1. Conditions: Protocol 1, FLAG tagged IL-17A 2.5 nM; simple average if tested more than once. In a few lines:
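IC50 came from a one-site competition fit of the acceptor/donor (665/620 nm) HTRF ratio. His-tagged IL-17RA, Eu-anti-FLAG and D2-anti-His were added after a 1 h rt compound preincubation with FLAG-tagged IL-17A dimer in PBS/0.01% Triton X-100, followed by 2 h at rt before reading.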

In assay [2] the target is T1, IL-17A(FLAG-Tagged): IL-17RA(His-Tagged). Kind of assay: IL-17A(FLAG-Tagged): IL-17RA(His-Tagged) Binding Disruption Eu-HTRF Assay, Protocol 2. Conditions: Protocol 2, FLAG tagged IL-17A 1 nM; simple average if tested more than once. An excerpt:
An antibody directed against the FLAG tag of IL-17A (SEQ ID NO: 1) is labeled with the HTRF donor chromophore (Europium-cryptate). IL-17A is present as a dimer that is “locked into” this quaternary structure due to the formation of loop-spanning […] disulfide bridges. The construct of IL-17RA used in the assay excludes the […] portion of the receptor and is fused to a C-terminal 10×His tag (SEQ ID NO:2). An antibody directed against the His tag of the IL-17RA chimera is labeled with the HTRF acceptor chromophore (“D2”). The fluorescence-resonance energy transfer (FRET) depends on the vicinity of the donor chromophore to the acceptor, and interruption of the binding between the IL-17A and IL-17RA causes the reduction/loss of FRET. Therefore, this assay allows to evaluate the compound effect on the binding IL-17A and IL-17RA by monitoring the fluorescence intensity of donor vs acceptor. The assay was run using either Protocol 1 or Protocol 2 as described below.
Protocol 2. 40 nl of 2-fold serial diluted compound solution for total 22 dilution points is added into each well of a 1536-well, white, low-volume, non-binding plate (Greiner #782904), then 2 μl of FLAG tagged IL-17A at 2× final concentration (1 nM) in solution of PBS+0.01% Triton-X100 is added to each well. The assay plate is briefly centrifuged then incubated for 1 h at rt. A mixed solution is prepared containing 2×5 nM 10HIS×IL-17RA, 2×2.5 nM Eu-anti-FLAG (CISBIO), 2×5 nM D2-anti-HIS (CISBIO) in PBS+0.01% Triton-X100+200 mM Potassium Fluoride (Sigma 60238) and 2 μl of mix is added to each well of the assay plate. The plate is briefly centrifuged then incubated for 2 h at rt. The HTRF intensities at the wavelength of donor (615 nm) and acceptor (665 nm) are measured using BMG Pherastar. The ratio between intensities at two wavelengths is calculated and plotted against the compound concentration and the data is fitted to a one-site competition model to yield IC50 of the compound.

Assay [3] concerns IL-17A-induced G-CSF production in human normal keratinocyte (NHK). Kind of assay: NHK Assay: IL-17A-induced G-CSF production in human normal keratinocyte. It is filed as cell-based. Conditions: 24 h, IL-17A 5 ng/mL, simple average if tested more than once. In a few lines: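 Stimulus rhIL-17A 5 ng/mL final, premixed 1 h rt with compound; adult NHK, 5% FBS, 0.2% DMSO. Viability by CellTiter-Glo vs DMSO.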

T1 sequence (Q16552 with tags, fused parts or gaps K93Q): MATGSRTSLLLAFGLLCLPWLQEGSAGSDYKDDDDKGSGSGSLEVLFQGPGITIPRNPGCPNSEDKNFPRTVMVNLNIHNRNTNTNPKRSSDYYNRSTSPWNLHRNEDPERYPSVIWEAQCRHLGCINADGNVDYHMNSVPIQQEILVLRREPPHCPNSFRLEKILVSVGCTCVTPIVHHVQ

With `[2H]C1([2H])[C@H](C(F)(F)F)NC(=O)N1[C@H](COC)c1ccc2[nH]c([C@H](COC(C)(C)C(F)(F)F)NC(=O)c3nonc3C)nc2c1` (relative stereo) [Example 54, N—((R*)-1-(5-((S)-2-methoxy-1-((R*)-2-oxo-4-(trifluoromethyl)imidazolidin-1-yl-5,5-d2)ethyl)-1H-benzo[d]imidazol-2-yl)-2-((1,1,1-trifluoro-2-methylpropan-2-yl)oxy)ethyl)-4-methyl-1,2,5-oxadiazole-3-carboxamide], the IC50 is less than 0.05 µM in assay [1]; less than 0.05 µM in assay [2]; less than 0.05 µM in assay [3] (Homo sapiens, Keratinocyte).

For the compound `C[C@H](c1ccc2[nH]c(C(COC(C)(C)C(F)(F)F)NC(=O)c3nonc3C3CC3)nc2c1)N1C[C@@H](C(F)(F)F)NC1=O` (single isomer, unassigned) [Example 7, 4-Cyclopropyl-N—((R*)-1-(5-((R)-1-((S)-2-oxo-4-(trifluoromethyl)imidazolidin-1-yl)ethyl)-1H-benzo[d]imidazol-2-yl)-2-((1,1,1-trifluoro-2-methylpropan-2-yl)oxy)ethyl)-1,2,5-oxadiazole-3-carboxamide], the IC50 in assay [1] was less than 0.05 µM; in assay [2] it was less than 0.05 µM; in assay [3] (Homo sapiens, Keratinocyte), less than 0.05 µM.

Take `CC(C)(OC[C@H](NC(=O)c1nonc1C1CC1)c1nc2cc(CN3C[C@@H](C(F)(F)F)NC3=O)ccc2[nH]1)C(F)(F)F` (single isomer, unassigned) [Example 17]: the concentration for half-maximal inhibition (IC50) was less than 0.05 µM in assay [1]; less than 0.05 µM in assay [2]; less than 0.05 µM in assay [3] (Homo sapiens, Keratinocyte).

For `CC(C)n1ncc(F)c1C(=O)N[C@@H](COC(C)(C)C(F)(F)F)c1nc2cc(CN3CC(C(F)(F)F)NC3=O)ccc2[nH]1` (single isomer, unassigned) [Example 32, 4-Fluoro-1-isopropyl-N—((R)-1-(5-(((S*)-2-oxo-4-(trifluoromethyl)imidazolidin-1-yl)methyl)-1H-benzo[d]imidazol-2-yl)-2-((1,1,1-trifluoro-2-methylpropan-2-yl)oxy)ethyl)-1H-pyrazole-5-carboxamide], the IC50 in assay [1] was less than 0.05 µM; in assay [2] it was less than 0.05 µM; in assay [3] (Homo sapiens, Keratinocyte) it was 0.05 to 0.1 µM.

In the case of `COC[C@H](c1ccc2[nH]c(C(COC(C)(C)C(F)(F)F)NC(=O)c3ncnn3C(C)C)nc2c1)N1CC(F)(F)CNC1=O` (single isomer, unassigned) [Example 52, N—((R*)-1-(5-((S)-1-(5,5-Difluoro-2-oxotetrahydropyrimidin-1(2H)-yl)-2-methoxyethyl)-1H-benzo[d]imidazol-2-yl)-2-((1,1,1-trifluoro-2-methylpropan-2-yl)oxy)ethyl)-1-isopropyl-1H-1,2,4-triazole-5-carboxamide], the IC50 in assay [1] was less than 0.05 µM; in assay [2], less than 0.05 µM; in assay [3] (Homo sapiens, Keratinocyte), less than 0.05 µM.

On to `COC[C@H](c1ccc2nc(C(NC(=O)c3nonc3C3CC3)[C@@H](C)O[C@H](C)C(F)(F)F)[nH]c2c1F)N1C[C@@H](C(F)(F)F)NC1=O` (single isomer, unassigned) [Example 94, 4-Cyclopropyl-N-((1S*,2R)-1-(7-fluoro-6-((S)-2-methoxy-1-((S)-2-oxo-4-(trifluoromethyl)imidazolidin-1-yl)ethyl)-1H-benzo[d]imidazol-2-yl)-2-(((R)-1,1,1-trifluoropropan-2-yl)oxy)propyl)-1,2,5-oxadiazole-3-carboxamide], for which the IC50 is less than 0.05 µM in assay [2] and less than 0.05 µM in assay [3] (Homo sapiens, Keratinocyte).

Turning to `COC[C@H](c1ccc2nc(C(NC(=O)c3nonc3C3CC3)[C@@H](C)O[C@H](C)C(F)(F)F)[nH]c2c1F)N1C[C@@H](C(F)(F)F)NC1=O` (single isomer, unassigned) [Example 95, 4-Cyclopropyl-N-((1R*,2R)-1-(7-fluoro-6-((S)-2-methoxy-1-((S)-2-oxo-4-(trifluoromethyl)imidazolidin-1-yl)ethyl)-1H-benzo[d]imidazol-2-yl)-2-(((R)-1,1,1-trifluoropropan-2-yl)oxy)propyl)-1,2,5-oxadiazole-3-carboxamide], the IC50 in assay [2] and in assay [3] was less than 0.05 µM each time.

In the case of `COC[C@H](c1ccc2nc(C(NC(=O)c3nonc3C)[C@@H](C)O[C@H](C)C(F)(F)F)[nH]c2c1F)N1C[C@@H](C(F)(F)F)NC1=O` (single isomer, unassigned) [Example 96, N-((1S*,2R)-1-(7-Fluoro-6-((S)-2-methoxy-1-((S)-2-oxo-4-(trifluoromethyl)imidazolidin-1-yl)ethyl)-1H-benzo[d]imidazol-2-yl)-2-(((R)-1,1,1-trifluoropropan-2-yl)oxy)propyl)-4-methyl-1,2,5-oxadiazole-3-carboxamide], the IC50 was 0.05 to 0.1 µM in assay [2] and less than 0.05 µM in assay [3] (Homo sapiens, Keratinocyte).

Take `COC[C@H](c1ccc2nc(C(NC(=O)c3nonc3C)[C@@H](C)O[C@H](C)C(F)(F)F)[nH]c2c1F)N1C[C@@H](C(F)(F)F)NC1=O` (single isomer, unassigned) [Example 97, N-((1R*,2R)-1-(7-Fluoro-6-((S)-2-methoxy-1-((S)-2-oxo-4-(trifluoromethyl)imidazolidin-1-yl)ethyl)-1H-benzo[d]imidazol-2-yl)-2-(((R)-1,1,1-trifluoropropan-2-yl)oxy)propyl)-4-methyl-1,2,5-oxadiazole-3-carboxamide]: the IC50 in assay [2] and in assay [3] was less than 0.05 µM in each case.

As to `C[C@@H](OC1CC1)[C@H](NC(=O)c1nonc1C1CC1)c1nc2cc([C@@H](COC3CC3)N3C[C@@H](C(F)(F)F)NC3=O)ccc2[nH]1` [Example 69, N-((1R,2R)-2-Cyclopropoxy-1-(5-((S)-2-cyclopropoxy-1-((S)-2-oxo-4-(trifluoromethyl)imidazolidin-1-yl)ethyl)-1H-benzo[d]imidazol-2-yl)propyl)-4-cyclopropyl-1,2,5-oxadiazole-3-carboxamide], the half-inhibitory concentration (IC50) is less than 0.05 µM in assay [2] and less than 0.05 µM in assay [3] (Homo sapiens, Keratinocyte).

In the case of `Cc1nonc1C(=O)N[C@H](c1nc2cc([C@@H](COC3CC3)N3C[C@@H](C(F)(F)F)NC3=O)ccc2[nH]1)[C@@H](C)OC1CC1` [Example 70, N-((1R,2R)-2-Cyclopropoxy-1-(5-((S)-2-cyclopropoxy-1-((S)-2-oxo-4-(trifluoromethyl)imidazolidin-1-yl)ethyl)-1H-benzo[d]imidazol-2-yl)propyl)-4-methyl-1,2,5-oxadiazole-3-carboxamide], the 50% inhibitory concentration (IC50) was less than 0.05 µM in assay [2] and less than 0.05 µM in assay [3] (Homo sapiens, Keratinocyte).

Consider `C[C@@H](OC1CC1)[C@H](NC(=O)c1nonc1C1CC1)c1nc2cc([C@@H](COC3CC3)N3CC(F)(F)CNC3=O)ccc2[nH]1` [Example 71, N-((1R,2R)-2-Cyclopropoxy-1-(5-((S)-2-cyclopropoxy-1-(5,5-difluoro-2-oxotetrahydropyrimidin-1(2H)-yl)ethyl)-1H-benzo[d]imidazol-2-yl)propyl)-4-cyclopropyl-1,2,5-oxadiazole-3-carboxamide], for which the IC50 was less than 0.05 µM in assay [2] and less than 0.05 µM in assay [3] (Homo sapiens, Keratinocyte).

Regarding `CC(C)n1ncc(F)c1C(=O)N[C@H](c1nc2cc([C@@H](COC3CC3)N3CC(F)(F)CNC3=O)ccc2[nH]1)[C@@H](C)OC1CC1` [Example 72, N-((1R,2R)-2-Cyclopropoxy-1-(5-((S)-2-cyclopropoxy-1-(5,5-difluoro-2-oxotetrahydropyrimidin-1(2H)-yl)ethyl)-1H-benzo[d]imidazol-2-yl)propyl)-4-fluoro-1-isopropyl-1H-pyrazole-5-carboxamide], the IC50 is less than 0.05 µM in assay [2] and 0.05 to 0.1 µM in assay [3] (Homo sapiens, Keratinocyte).

As for `Cc1nonc1C(=O)N[C@H](c1nc2cc([C@@H](COC3CC3)N3CC(F)(F)CNC3=O)ccc2[nH]1)[C@@H](C)OC1CC1` [Example 73, N-((1R,2R)-2-Cyclopropoxy-1-(5-((S)-2-cyclopropoxy-1-(5,5-difluoro-2-oxotetrahydropyrimidin-1(2H)-yl)ethyl)-1H-benzo[d]imidazol-2-yl)propyl)-4-methyl-1,2,5-oxadiazole-3-carboxamide], the half-inhibitory concentration (IC50) in assay [2] was less than 0.05 µM; in assay [3] (Homo sapiens, Keratinocyte), less than 0.05 µM.

(Values after patent publication US20250122181A1, “BENZIMIDAZOLES AS MODULATORS OF IL-17” (Janssen Pharmaceutica NV, priority 2021, published 2025).)
